Results: patent US20240065971A1, “METHODS OF TREATING ABC-DLBCL USING INHIBITORS OF BRUTONS TYROSINE KINASE” (Pharmacyclics LLC, priority 2010, published 2024)

Legend:
OCI-Ly3 cells [1] = details: 10 nM, up to 4 hours
OCI-Ly10 cells [2] = details: 10 nM, up to 4 hours
OCI-Ly10 cells [3] = experiment: Constitutive IL-10 secretion by ELISA; assay type: cell-based
OCI-Ly10 cells [4] = experiment: Dose response of p-ERK by Western blotting; assay type: cell-based
OCI-Ly10 cells [5] = experiment: RT-PCR (Taqman) of NF-kB target genes; assay type: cell-based; details: 100 nM, 4 hrs
OCI-Ly3 cells [6] = experiment: IgM/IgG stimulated calcium flux (Fura-2AM); assay type: cell-based; details: OCI-Ly3, inhibitor added 5 min before stimulation
Excerpt: (§1) The kinetics of calcium flux were quantitated by optical spectroscopy following standard procedures.

OCI-Ly10 cells [7] = experiment: IgM/IgG stimulated calcium flux (Fura-2AM); assay type: cell-based; details: OCI-Ly10, inhibitor added 5 min before stimulation
Excerpt: as §1

[8] = tested on: OCI-Ly10 tumor xenografts; experiment: OCI-Ly10 tumor xenografts in female SCID mice; assay type: in vivo; details: once a day 3 mg/kg or 12 mg/kg, vs vehicle
Excerpt: Female SCID mice were implanted with 10 million […] cells in Matrigel and tumors were allowed to reach 100 mm^3.

| SMILES | Phosphorylation of AKT (OCI-Ly3 cells [1]) | Phosphorylation of AKT (OCI-Ly10 cells [2]) | Phosphorylation of ERK (OCI-Ly10 cells [2]) | Constitutive IL-10 secretion (OCI-Ly10 cells [3]) | concentration that decreases p-ERK (OCI-Ly10 cells [4]) [nM] | Myc expression (OCI-Ly10 cells [5]) | calcium flux after stimulation (OCI-Ly3 cells [6]) | calcium flux after stimulation (OCI-Ly10 cells [7]) | tumor growth [8] |
| --- | --- | --- | --- | --- | --- | --- | --- | --- | --- |
| C=CC(=O)N1CCC[C@@H](n2nc(-c3ccc(Oc4ccccc4)cc3)c3c(N)ncnc32)C1 [Btk inhibitor] | inhibited | rapidly abolished | rapidly abolished | inhibited | 1 | maximally downregulated | dose-dependent reduction | dose-dependent reduction | dose-dependent inhibition |
| CC[C@H](Nc1ncnc2[nH]cnc12)c1nc2cccc(F)c2c(=O)n1-c1ccccc1 [CAL-101, reference compound] | – | – | – | – | 100 | – | – | – | – |
